{"source": "patent US6713506B2", "about": "“Tea polyphenol esters and analogs thereof for cancer prevention and treatment” (University of South Florida, priority 2000, dated 2004)", "key": {"[1]": {"molecular_target": "chymotrypsin-like activity of purified 20S proteasome", "sequence (Q9P992 whole entry)": "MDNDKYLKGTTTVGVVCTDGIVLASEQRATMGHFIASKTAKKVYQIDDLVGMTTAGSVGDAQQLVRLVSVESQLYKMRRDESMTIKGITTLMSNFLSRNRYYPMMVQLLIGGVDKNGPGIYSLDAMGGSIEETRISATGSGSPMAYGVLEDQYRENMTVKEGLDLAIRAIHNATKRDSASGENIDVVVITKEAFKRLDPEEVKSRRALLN", "assay_type": "biochemical", "conditions": "read-out: IC50 towards the chymotrypsin-like activity of purified 20S proteasome", "procedure": "FIG. 8. […] A). […] Initially, 0.5 μg of purified 20S proteasome is incubated with 20 μM of a fluorogenic peptide substrate, Suc-Leu-Leu-Val-Tyr-AMC, for 30 min at 37° C. in 100 μl of assay buffer (20 mM Tris-HCl, pH 8.0) with various concentrations of tannic acid. After incubation, the reaction mixture is diluted to 200 μl with the assay buffer, followed by measurement of the hydrolyzed 7-amido-4-methyl-coumarin (AMC) groups using a fluorometer with an excitation filter of 380 nm and an emission filter of 460 nm. B). […] Tannic acid (0.3 μg/ml) and Glucose (180 μg/ml) are used in the proteasome activity assay as described above. C). […] Purified calpain I (3 μg) protein is incubated with 40 μM of a fluorogenic peptide substrate, Suc-Leu-Tyr-AMC, for 30 min at 37° C. in 100 μl of assay buffer (50 mM Tris-HCl, pH 7.5, containing 50 mM NaCl, 1 mM EDTA, 1 mM EGTA, 5 mM β-Mercaptoethanol, 5 mM CaCl2, and 0.1% CHAPS) in the absence (control) or presence of 5 μg/ml of tannic acid or 0.18 μg/ml of calpeptin (calpain inhibitor).\nInhibition of the proteasome activity in vitro by tea polyphenols—To measure the 20S proteasome chymotrypsin-like activity, 0.5 μg of a purified 20S proteasome (Calbiochem) is incubated with 20 μM of a fluorogenic peptide substrate, Suc-Leu-Leu-Val-Tyr-AMC (Calbiochem), for 30 min at 37° C. in 100 μl of assay buffer (20 mM Tris-HCl, pH 8.0), with or without tea polyphenols (purity >95%; Sigma) or tea extract. After incubation, the reaction mixture is diluted to 200 μl with the assay buffer, followed by measurement of the hydrolyzed 7-amido-4-methyl-coumarin (AMC) groups using a VersaFluor™ Fluorometer with an excitation filter of 380 nm and an emission filter of 460 nm (Bio-Rad)."}, "[2]": {"molecular_target": "T1, chymotrypsin-like activity in living breast (MCF7) cancer cells (Homo sapiens, UniProt P28074)", "T1 construct": "endogenous in cells; host or cells: MCF7 cells (intact)", "assay": "Proteasome chymotrypsin-like activity in living MCF7 cells", "assay_type": "cell-based", "procedure": "FIG. 16(A) The fluorogenic calpain I peptide substrate Suc-Leu-Tyr-AMC (S; 40 μM) is incubated with either a purified calpain I (P; 3 μg) or buffer (Buff) at 30° C. for 30 min with or without 10 μM calpeptin, EGCG or EGC, followed by measuring AMCs (the product), as described in the text. (B) T1 or T2 cells are treated with LLL at either 10 (A-C) or 50 μM (D, E), followed by Western blotting with indicated antibodies.(C) MCF-7 cells, pre-incubated with EGCG at an indicated concentration for 12 h, are incubation for additional 12 h with 20 μM Suc-Leu-Leu-Val-Tyr-AMC (the peptide substrate for the proteasomal chymotryptic activity), followed by measurement of AMCs in medium (as described in the grant and the manuscript). (D) Cell cycle-dependent p27 degradation. PCI-13 head and neck tumor cells are treated with aphidicolin (5 μg/ml) for 24 h (0 h), followed by release for up to 24 h. […]\n(b) The peptide substrate for the proteasomal chymotrypsin-like activity, Suc-Leu-Leu-Val-Tyr-AMC, is used to measure the proteasome activity in intact Jurkat, MCF-7 and PC-3 cells, which is inhibitable by co-incubation with EGCG (FIG. 16C). […] After that, medium is collected and the liberated AMCs in the medium are measured by fluorometer to measure in vivo potency and selectivity of tea polyphenols."}, "[3]": {"tested_on": "p27 and IκB-α in LNCaP cells", "assay": "Western blot of proteasome substrates in LNCaP cells", "assay_type": "cell-based, human", "conditions": "1 or 10 μM, 12 h", "procedure": "FIG. 5. Western blot analysis. A, Jurkat T cells are treated with 1 or 10 μM of EGCG or EGC for 12 h, or B, C, 25 μM of EGCG for various times, followed by Western blot assay using specific antibodies to p27, IκB-α, ubiquitin or actin, as indicated. MWs of IκB-α and actin are 40 and 43 kDa, respectively. The band of 56 kDa, indicated by an arrow in (B), is an ubiquitinated or phosphorylated form of IκB-α. The bands indicated in (C) are ubiquitin-containing proteins. D, LNCaP cells are treated with 1 or 10 μM of EGCG for 12 h. Western bot is performed as described above. E, F, Jurkat T cells are pretreated with 10 μg/ml cycloheximide for 2 hr, followed by co-incubation with 1 or 10 μM of EGCG for 8 or 12 hr as indicated. The p70 is a putative ubiquitinated p27-containing complex (An et al., 1998, Cell Death Differ 5: 1062-75).\nWestern blot analysis—Western blot assay is performed as described previously (An et al., (1998) Cell Death Differ 5(12), 1062-75) using specific antibodies to p27^Kip (monoclonal; Pharmingen), IκB-α (polyclonal; Santa Cruz), ubiquitin (polyclonal; Sigma) or actin (polyclonal; Santa Cruz). In brief, Jurkat T or LNCaP cells are treated with EGCG or EGC in dose-response or time-dependent manner. Cells are harvested and lysated using the whole lysis buffer. […] Immunocomplexes are detected using the ECL detection reagents kit (Amersham, Piscataway, N.J.)."}}, "note": "Entries after “also recorded” stand apart in the source; their conditions may differ.", "data": [{"molecule": "Oc1cc(O)c2c(c1)O[C@H](c1cc(O)c(O)c(O)c1)[C@H](O)C2", "note": "[EGC, (−)-epigallocatechin]", "values": [{"measurement": "IC50", "setting": "[1]", "value": 1200, "unit": "µM"}]}, {"molecule": "O=C(O[C@@H]1Cc2c(O)cc(O)cc2O[C@@H]1c1cc(O)c(O)c(O)c1)c1cc(O)c(O)c(O)c1", "note": "[EGCG, (−)-epigallocatechin-3-gallate]", "values": [{"measurement": "inhibition of chymotrypsin-like activity in living MCF7 cells (in words)", "setting": "[2]", "value": "inhibitable; also recorded: inhibits"}, {"measurement": "p27 and IκB protein expression", "setting": "[3]", "value": "accumulated"}]}]}
